Test results taken from ChEMBL document CHEMBL1955859, “Molecular modeling study of cyclic pentapeptide CXCR4 antagonists: new insight into CXCR4-FC131 interactions” (Bioorg Med Chem Lett, 2012).

Target: C-X-C chemokine receptor type 4 (Homo sapiens, UniProt P61073)
Assay: Antagonist activity at CXCR4
Format: functional

Sequence of C-X-C chemokine receptor type 4 (P61073 whole entry): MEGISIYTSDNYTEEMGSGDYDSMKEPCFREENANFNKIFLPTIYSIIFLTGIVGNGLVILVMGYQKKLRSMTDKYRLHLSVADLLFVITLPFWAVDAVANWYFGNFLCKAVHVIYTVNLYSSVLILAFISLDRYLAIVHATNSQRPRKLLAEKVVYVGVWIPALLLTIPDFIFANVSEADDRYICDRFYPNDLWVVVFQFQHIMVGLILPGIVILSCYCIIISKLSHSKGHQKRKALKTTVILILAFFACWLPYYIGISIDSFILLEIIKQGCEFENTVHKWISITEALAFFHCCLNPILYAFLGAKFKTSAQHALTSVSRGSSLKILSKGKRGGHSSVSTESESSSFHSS

- IC50: 51 nM
Compound: NC(N)=NCCC[C@@H]1NC(=O)[C@H](CCCN=C(N)N)NC(=O)[C@@H](Cc2ccccc2)NC(=O)CNC(=O)[C@H](Cc2ccc3ccccc3c2)NC1=O
